Laboratory results reported in publication PMC11678797, “A Repurposed Drug Selection Pipeline to Identify CNS-Penetrant Drug Candidates for Glioblastoma” (Pharmaceuticals, 2024).

Assays:
[1] = biological target: T1, murine BCRP (Abcg2) (Mus musculus, UniProt Q7TMS5); test: Concentration equilibrium transport assay (CETA), MDCK cells transduced with murine Abcg2, with zosuquidar; type: in vitro ADME; conditions: omacetaxine 100 nM, zosuquidar 1 μM, up to 4 h
T1 construct: expressed in transfected cells; host or cells: MDCK type II (canine kidney) cells transduced with murine Abcg2 (MDCK-Bcrp1)
T1 sequence (Q7TMS5 1-657): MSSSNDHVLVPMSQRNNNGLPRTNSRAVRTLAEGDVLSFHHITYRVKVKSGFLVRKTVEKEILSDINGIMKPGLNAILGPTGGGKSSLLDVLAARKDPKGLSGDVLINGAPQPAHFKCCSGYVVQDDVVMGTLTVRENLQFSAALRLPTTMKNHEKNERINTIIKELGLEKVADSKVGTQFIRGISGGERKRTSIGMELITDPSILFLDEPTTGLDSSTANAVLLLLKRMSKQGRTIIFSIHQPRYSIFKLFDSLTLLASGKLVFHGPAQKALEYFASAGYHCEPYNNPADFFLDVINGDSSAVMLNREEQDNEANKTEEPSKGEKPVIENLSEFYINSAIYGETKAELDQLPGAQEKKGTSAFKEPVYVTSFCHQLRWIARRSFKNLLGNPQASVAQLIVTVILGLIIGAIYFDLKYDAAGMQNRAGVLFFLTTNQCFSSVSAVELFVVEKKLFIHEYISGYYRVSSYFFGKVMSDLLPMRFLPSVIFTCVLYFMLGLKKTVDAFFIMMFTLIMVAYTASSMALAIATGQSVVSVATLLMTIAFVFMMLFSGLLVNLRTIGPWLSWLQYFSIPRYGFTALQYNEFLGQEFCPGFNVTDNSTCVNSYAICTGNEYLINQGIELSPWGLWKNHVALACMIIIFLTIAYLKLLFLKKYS
Procedure: In vitro transport studies were performed using the LLC pig kidney cell line (LLC-PK1) and sub-lines transduced with murine Abcb1a (LLC-Mdr1a) or human ABCB1 (LLC-MDR1). Similarly, in vitro transport studies were conducted in the parental Madin–Darby canine kidney (MDCK) type II cell line (MDCK-Parent) and murine Abcg2 (MDCK-Bcrp1) or human ABCG2 (MDCK-BCRP) transduced sublines. Concentration equilibrium transport assays (CETA) were performed as previously described. Briefly, cells were grown on polycarbonate membrane filters (3.0 µm pores, 24 mm diameter; Costar Corning, NY, USA) for 4 days. Next, 2 mL of MEM medium containing 10% FCS and omacetaxine (100 nM) was added to both the apical and basal compartments. Then, [14C]-inulin ([…]) was added basolateral to check the membrane integrity. Zosuquidar 1 μM was added to all wells containing MDCK cells to inhibit endogenous (canine) ABCB1. […] The integrity of the membrane was checked by taking 20 μL samples from both apical and basolateral sides for radioactivity counting. […] OMA concentrations were measured using an LC-MS/MS system that consisted of an UltiMate 3000 LC System (Dionex, Sunnyvale, CA, USA) and an API 4000 mass spectrometer (Sciex, Framingham, MA, USA).

[2] = humans, cited from earlier work
[3] = source not stated; cited from earlier work

substrate of BCRP (translocation between apical and basolateral compartments) [1]: not a substrate
Structure (SMILES): COC(=O)C[C@](O)(CCCC(C)(C)O)C(=O)O[C@@H]1C(OC)=C[C@]23CCCN2CCc2cc4c(cc2[C@H]13)OCO4 [OMA, Omacetaxine mepesuccinate]
time to reach Cmax plasma ([2]; s.c. administration): 1 h
Cmax ([2]; DrugBank, read-out: reported Cmax plasma value): 43 nM
half-life [2]: 7 h
logP value [3]: 1.88
